Activity calls are given as the source filed them. No cut-off for these calls is given here.
Tests used:
[1] = molecular target: Histone deacetylase 1 (Homo sapiens) (UniProt Q13547); assay: Inhibition of HDAC1 in human U937 cells at 5 uM […]; type: cell-based; details: U-937
[2] = molecular target: Histone deacetylase (Homo sapiens) (UniProt Q13547+O15379+Q9UBN7+Q92769+Q9UQL6+Q8WUI4+Q9BY41+Q96DB2+P56524+Q9UKV0+Q969S8); assay: Inhibition of HDAC in human U937 cells assessed as induction of histone H3 acetylation at 5 uM after 30 hrs by cytofluorimetric analysis; type: cell-based; details: U-937
[3] = molecular target: T1, Protein deacetylase HDAC6 (Homo sapiens) (UniProt Q9UBN7); assay: Inhibition of HDAC6 in human U937 cells assessed as induction of alpha-tubulin acetylation at 5 uM after 30 hrs by cytofluorimetric analysis; type: cell-based; details: U-937
T1 sequence (whole entry): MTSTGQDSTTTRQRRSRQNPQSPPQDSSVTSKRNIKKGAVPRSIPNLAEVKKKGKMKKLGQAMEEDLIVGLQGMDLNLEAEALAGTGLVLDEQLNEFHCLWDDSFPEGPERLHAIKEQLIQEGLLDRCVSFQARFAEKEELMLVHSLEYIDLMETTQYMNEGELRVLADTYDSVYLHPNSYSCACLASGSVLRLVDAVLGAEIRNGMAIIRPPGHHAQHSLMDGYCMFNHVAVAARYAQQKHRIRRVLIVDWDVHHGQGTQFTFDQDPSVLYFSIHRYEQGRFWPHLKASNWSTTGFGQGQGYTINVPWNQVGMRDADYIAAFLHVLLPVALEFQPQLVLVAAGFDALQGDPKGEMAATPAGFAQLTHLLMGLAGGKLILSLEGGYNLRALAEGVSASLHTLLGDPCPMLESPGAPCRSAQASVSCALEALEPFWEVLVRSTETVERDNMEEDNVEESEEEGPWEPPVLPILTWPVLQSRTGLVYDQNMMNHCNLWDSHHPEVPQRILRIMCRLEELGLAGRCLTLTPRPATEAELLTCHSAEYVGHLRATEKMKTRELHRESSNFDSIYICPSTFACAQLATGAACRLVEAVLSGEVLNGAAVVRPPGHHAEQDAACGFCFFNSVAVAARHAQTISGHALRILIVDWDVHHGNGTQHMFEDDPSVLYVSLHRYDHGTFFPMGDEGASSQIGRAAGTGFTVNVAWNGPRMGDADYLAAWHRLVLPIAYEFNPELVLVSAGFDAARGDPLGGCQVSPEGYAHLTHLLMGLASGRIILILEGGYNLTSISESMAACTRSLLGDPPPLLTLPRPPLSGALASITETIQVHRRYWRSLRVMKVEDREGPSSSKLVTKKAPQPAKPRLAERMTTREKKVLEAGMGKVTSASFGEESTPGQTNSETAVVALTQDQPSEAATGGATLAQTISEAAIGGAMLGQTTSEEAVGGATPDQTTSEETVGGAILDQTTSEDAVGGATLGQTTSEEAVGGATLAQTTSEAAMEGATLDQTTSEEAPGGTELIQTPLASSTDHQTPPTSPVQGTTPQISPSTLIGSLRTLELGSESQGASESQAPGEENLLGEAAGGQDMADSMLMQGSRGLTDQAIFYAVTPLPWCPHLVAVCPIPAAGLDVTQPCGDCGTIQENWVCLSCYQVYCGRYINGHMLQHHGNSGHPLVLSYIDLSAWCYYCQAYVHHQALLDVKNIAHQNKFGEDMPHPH

[4] = molecular target: Protein kinase C alpha type (Homo sapiens) (UniProt P17252); assay: Inhibition of PKCalpha in human U937 cells assessed as p21WAF1/CIP1 expression at 5 uM after 30 hrs by cytofluorimetric analysis; type: cell-based; details: U-937
U-937 [5] = assay: Induction of cell differentiation in human U937 cells assessed as CD11c expression at 5 uM after 30 hrs by cytofluorimetric analysis; type: functional, cell-based
U-937 [6] = assay: Induction of apoptosis in human U937 cells at 5 uM after 30 hrs; type: functional, cell-based
[7] = molecular target: T2, NAD-dependent protein deacetylase sirtuin-1 (Homo sapiens) (UniProt Q96EB6); assay: Inhibition of human recombinant SIRT1 using KI-177 as substrate at 5 uM after 30 mins by fluorescence assay
T2 sequence (whole entry): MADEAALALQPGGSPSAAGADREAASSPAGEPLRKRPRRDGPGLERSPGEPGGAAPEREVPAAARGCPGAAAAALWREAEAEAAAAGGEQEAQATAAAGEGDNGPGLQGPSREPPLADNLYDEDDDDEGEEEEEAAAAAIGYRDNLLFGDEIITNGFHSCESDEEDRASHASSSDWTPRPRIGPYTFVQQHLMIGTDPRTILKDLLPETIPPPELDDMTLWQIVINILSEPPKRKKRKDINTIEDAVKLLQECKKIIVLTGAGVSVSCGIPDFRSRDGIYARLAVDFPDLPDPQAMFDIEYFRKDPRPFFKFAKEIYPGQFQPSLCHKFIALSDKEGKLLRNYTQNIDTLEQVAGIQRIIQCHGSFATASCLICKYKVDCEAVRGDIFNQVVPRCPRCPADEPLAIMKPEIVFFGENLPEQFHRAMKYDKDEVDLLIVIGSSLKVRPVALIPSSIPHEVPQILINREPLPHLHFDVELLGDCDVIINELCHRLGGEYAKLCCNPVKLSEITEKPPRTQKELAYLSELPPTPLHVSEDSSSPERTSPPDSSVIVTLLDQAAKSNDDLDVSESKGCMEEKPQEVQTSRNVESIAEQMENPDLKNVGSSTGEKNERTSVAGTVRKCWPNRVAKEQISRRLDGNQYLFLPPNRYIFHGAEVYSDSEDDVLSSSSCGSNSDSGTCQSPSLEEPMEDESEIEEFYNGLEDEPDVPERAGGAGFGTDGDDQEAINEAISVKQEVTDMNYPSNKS

[8] = molecular target: DNA (cytosine-5)-methyltransferase 1 (Homo sapiens) (UniProt P26358); assay: Inhibition of recombinant DNMT1 using S-adenosyl-L-[methyl-3H]methionine as substrate at 5 uM after 2 hrs by radioactive assay
[9] = molecular target: DNA (cytosine-5)-methyltransferase 1 (Homo sapiens) (UniProt P26358); assay: Inhibition of DNMT1 human U937 cells assessed as reactivation of p16 expression at 5 uM after 24 hrs by Western blot analysis; type: cell-based; details: U-937
[10] = molecular target: T2, NAD-dependent protein deacetylase sirtuin-1 (Homo sapiens); assay: Inhibition of SIRT1 in human U937 cells assessed as H3 acetylation on lysine K9 at 5 uM after 24 hrs by Western blot analysis; type: cell-based; details: U-937
[11] = molecular target: T2, NAD-dependent protein deacetylase sirtuin-1 (Homo sapiens); assay: Inhibition of SIRT1 in human U937 cells assessed as H3 acetylation on lysine K56 at 5 uM after 24 hrs by Western blot analysis; type: cell-based; details: U-937
[12] = molecular target: T2, NAD-dependent protein deacetylase sirtuin-1 (Homo sapiens); assay: Inhibition of SIRT1 in human MCF7 cells assessed as p53 acetylation on lysine 382 after 24 hrs by Western blot analysis; type: cell-based
U-937 [13] = assay: Effect on DNMT1 level in human U937 cells at 0.5 to 5 uM after 24 hrs by Western blot analysis; type: functional, cell-based
[14] = molecular target: DNA (cytosine-5)-methyltransferase 1 (Homo sapiens) (UniProt P26358); assay: Inhibition of DNMT1 human u937 cells assessed as reactivation of p16 expression at 0.5 to 5 uM after 24 hrs by Western blot analysis
[15] = Cell cycle arrest in apoptosis in AML patient blasts at 5 uM after 26 hrs; type: functional; details: Homo sapiens
U-937 [16] = assay: Cell cycle arrest in human U937 cells at 5 uM after 24 hrs by cytofluorimetric analysis; type: functional, cell-based
[17] = molecular target: Histone deacetylase 4 (Homo sapiens) (UniProt P56524); assay: Inhibition of HDAC4 in human U937 cells at 5 uM […]; type: cell-based; details: U-937
AML = assay: Induction of apoptosis in AML patient blasts at 5 uM after 26 hrs; type: functional; details: Homo sapiens
[18] = molecular target: T2, NAD-dependent protein deacetylase sirtuin-1 (Homo sapiens); assay: Inhibition of SIRT1 in human MCF7 cells assessed as p53 acetylation on lysine 382 at 5 uM after 24 hrs by Western blot analysis; type: cell-based
U-937 [19] = assay: Cell cycle arrest in human U937 cells assessed as accumulation at G2M phase at 5 uM after 24 hrs by cytofluorimetric analysis; type: functional, cell-based
U-937 [20] = assay: Cell cycle arrest in human U937 cells assessed as accumulation at G1 phase at 5 uM after 24 hrs by cytofluorimetric analysis; type: functional, cell-based

Histone deacetylase 1 (Homo sapiens), sequence (Q13547 whole entry): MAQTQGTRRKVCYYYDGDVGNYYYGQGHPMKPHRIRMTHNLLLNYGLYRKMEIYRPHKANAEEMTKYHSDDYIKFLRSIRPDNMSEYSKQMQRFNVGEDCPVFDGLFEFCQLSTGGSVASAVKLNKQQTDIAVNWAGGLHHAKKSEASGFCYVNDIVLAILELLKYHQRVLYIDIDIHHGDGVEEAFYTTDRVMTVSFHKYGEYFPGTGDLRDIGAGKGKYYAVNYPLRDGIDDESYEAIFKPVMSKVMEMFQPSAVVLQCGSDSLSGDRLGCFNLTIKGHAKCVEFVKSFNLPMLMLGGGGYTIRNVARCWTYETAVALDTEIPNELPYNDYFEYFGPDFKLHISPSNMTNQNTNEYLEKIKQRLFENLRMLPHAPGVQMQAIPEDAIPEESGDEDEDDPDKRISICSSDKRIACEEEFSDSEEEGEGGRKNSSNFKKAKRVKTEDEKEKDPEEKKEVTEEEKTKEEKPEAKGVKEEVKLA
DNA (cytosine-5)-methyltransferase 1 (Homo sapiens), sequence (P26358 whole entry): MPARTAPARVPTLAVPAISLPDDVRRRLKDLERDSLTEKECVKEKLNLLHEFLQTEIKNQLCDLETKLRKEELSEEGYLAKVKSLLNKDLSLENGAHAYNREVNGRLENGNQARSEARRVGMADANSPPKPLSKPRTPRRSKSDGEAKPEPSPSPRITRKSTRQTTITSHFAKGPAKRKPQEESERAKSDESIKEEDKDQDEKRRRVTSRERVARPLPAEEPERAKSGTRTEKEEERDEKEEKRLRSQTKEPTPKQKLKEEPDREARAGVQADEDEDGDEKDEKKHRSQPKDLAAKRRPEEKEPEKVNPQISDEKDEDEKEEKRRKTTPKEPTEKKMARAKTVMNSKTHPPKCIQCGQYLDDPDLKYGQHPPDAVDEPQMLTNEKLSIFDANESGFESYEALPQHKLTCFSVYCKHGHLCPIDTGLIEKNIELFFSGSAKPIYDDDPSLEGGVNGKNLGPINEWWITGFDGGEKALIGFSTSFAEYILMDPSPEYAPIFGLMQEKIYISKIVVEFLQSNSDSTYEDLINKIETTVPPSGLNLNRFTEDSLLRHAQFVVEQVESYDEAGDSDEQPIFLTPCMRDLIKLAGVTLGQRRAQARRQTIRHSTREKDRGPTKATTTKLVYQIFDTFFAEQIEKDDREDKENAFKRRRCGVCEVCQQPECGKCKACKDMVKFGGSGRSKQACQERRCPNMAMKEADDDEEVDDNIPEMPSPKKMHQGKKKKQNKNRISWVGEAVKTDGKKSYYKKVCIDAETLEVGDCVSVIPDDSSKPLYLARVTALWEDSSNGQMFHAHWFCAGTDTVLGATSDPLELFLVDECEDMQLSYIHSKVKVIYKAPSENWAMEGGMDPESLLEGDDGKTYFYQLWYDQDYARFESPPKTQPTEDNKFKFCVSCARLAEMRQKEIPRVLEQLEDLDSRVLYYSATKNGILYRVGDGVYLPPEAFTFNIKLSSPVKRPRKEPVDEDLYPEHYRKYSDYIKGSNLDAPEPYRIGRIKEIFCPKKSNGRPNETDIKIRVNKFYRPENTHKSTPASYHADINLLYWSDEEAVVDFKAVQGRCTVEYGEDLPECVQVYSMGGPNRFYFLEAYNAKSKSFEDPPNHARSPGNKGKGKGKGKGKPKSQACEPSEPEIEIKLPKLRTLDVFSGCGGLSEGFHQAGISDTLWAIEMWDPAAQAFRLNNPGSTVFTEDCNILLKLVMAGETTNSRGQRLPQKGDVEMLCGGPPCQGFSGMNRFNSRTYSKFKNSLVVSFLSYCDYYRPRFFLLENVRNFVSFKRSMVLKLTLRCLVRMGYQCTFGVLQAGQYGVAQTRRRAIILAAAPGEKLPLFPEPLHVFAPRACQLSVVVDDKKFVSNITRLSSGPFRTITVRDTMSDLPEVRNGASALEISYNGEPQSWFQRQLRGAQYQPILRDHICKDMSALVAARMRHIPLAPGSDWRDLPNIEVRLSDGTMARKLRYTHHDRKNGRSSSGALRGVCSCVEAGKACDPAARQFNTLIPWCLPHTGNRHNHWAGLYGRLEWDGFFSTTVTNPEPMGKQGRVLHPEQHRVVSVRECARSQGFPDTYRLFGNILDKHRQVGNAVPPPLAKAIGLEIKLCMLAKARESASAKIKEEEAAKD
Histone deacetylase 4 (Homo sapiens), sequence (P56524 whole entry): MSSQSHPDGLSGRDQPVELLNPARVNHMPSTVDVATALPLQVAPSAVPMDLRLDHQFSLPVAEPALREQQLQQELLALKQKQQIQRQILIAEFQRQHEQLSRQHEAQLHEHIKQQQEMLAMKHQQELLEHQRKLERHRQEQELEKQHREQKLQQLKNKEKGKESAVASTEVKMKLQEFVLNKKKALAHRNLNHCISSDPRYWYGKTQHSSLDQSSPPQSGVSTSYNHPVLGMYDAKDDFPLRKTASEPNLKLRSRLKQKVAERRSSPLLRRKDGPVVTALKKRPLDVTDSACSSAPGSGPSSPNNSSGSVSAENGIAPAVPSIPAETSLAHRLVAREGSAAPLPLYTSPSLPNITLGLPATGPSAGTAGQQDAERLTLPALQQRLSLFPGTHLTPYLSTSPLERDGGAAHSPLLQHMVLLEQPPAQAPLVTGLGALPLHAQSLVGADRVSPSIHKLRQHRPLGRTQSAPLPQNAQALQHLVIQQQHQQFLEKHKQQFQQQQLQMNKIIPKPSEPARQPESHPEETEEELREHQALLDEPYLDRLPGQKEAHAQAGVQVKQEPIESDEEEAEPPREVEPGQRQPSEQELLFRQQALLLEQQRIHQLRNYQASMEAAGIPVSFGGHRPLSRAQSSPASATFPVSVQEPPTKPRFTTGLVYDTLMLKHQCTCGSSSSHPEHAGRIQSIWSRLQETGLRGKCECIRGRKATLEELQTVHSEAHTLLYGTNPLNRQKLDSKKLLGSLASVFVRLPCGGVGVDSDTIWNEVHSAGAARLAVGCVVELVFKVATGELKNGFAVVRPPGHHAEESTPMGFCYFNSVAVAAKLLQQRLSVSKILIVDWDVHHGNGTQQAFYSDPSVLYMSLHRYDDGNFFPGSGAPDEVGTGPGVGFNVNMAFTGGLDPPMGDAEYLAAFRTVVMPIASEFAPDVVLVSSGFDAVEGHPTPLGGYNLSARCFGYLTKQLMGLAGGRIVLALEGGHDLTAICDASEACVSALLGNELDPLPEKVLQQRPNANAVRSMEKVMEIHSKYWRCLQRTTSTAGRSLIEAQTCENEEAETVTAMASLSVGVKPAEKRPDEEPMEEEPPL

Row | Structure (SMILES) | inhibition [1] | inhibition [2] | inhibition [3] | inhibition [4] | inhibition [7] | inhibition [8] | inhibition [9] | inhibition [10] | inhibition [11] | inhibition [12] | inhibition [14] | inhibition [17] | inhibition [18] | Activity (U-937 [5]) | Activity (U-937 [6]) | Activity (U-937 [13]) | Activity [15] | Activity (AML) | also measured
1 | Cn1cc(C/C(=N\O)C(=O)NCCSSCCNC(=O)/C(Cc2cn(C)c3ccc(Br)cc23)=N/O)c2cc(Br)ccc21 | Active | Active | Active | Active | inactive | inactive | Active | Active | Active | Dose-dependent effect | Active | – | – | Active | Active | inactive | – | – | –
2 | O=C(NCCSSCCNC(=O)/C(Cc1c[nH]c2c(Br)cccc12)=N/O)/C(Cc1c[nH]c2c(Br)cccc12)=N/O | 60% | Active | Active | Active | – | – | – | – | – | – | – | 40% | – | Active | Active | – | Active | Active | Activity (U-937 [16]): Active
3 | O=C(NCCSSCCNC(=O)/C(Cc1ccc(O)c(Br)c1)=N/O)/C(Cc1ccc(O)c(Br)c1)=N/O | – | – | Active | – | – | – | – | – | – | – | – | – | – | – | Active | – | Active | Active | –
4 | O=C(NCCSSCCNC(=O)/C(Cc1c[nH]c2ccc(OCc3ccccc3)cc12)=N/O)/C(Cc1c[nH]c2ccc(OCc3ccccc3)cc12)=N/O | Active | Active | Active | Active | – | Active | Active | – | – | Dose-dependent effect | – | Active | – | Active | Active | inactive | – | – | –
5 | CSCCNC(=O)/C(Cc1c[nH]c2ccc(Br)cc12)=N/O | 40% | Active | Active | Active | inactive | inactive | – | Active | Active | – | Active | 20% | Active | Active | inactive | inactive | – | Active | Activity (U-937 [19]): inactive; Activity (U-937 [20]): Active
6 | O=C(NCCO)/C(Cc1c[nH]c2ccc(Br)cc12)=N/O | – | – | Active | – | inactive | – | Active | inactive | inactive | Dose-dependent effect | – | – | – | – | – | inactive | – | – | –

Second part, led by results:

Row | inhibition [1] | inhibition [2] | inhibition [3] | inhibition [4] | inhibition [7] | inhibition [8] | inhibition [9] | inhibition [10] | inhibition [11] | inhibition [12] | inhibition [14] | inhibition [17] | inhibition [18] | Structure (SMILES) | Activity (U-937 [5]) | Activity (U-937 [6]) | Activity (U-937 [13]) | Activity [15] | Activity (AML) | also measured
7 | 60% | Active | Active | Active | Active | Active | Active | – | – | – | Active | 40% | Active | O=C(NCCSSCCNC(=O)/C(Cc1c[nH]c2ccc(Br)cc12)=N/O)/C(Cc1c[nH]c2ccc(Br)cc12)=N/O | – | Active | inactive | Active | Active | –
8 | Active | Active | Active | Active | – | inactive | – | – | – | Dose-dependent effect | – | – | – | O=C(CCc1c[nH]c2ccc(Br)cc12)NCCSSCCNC(=O)CCc1c[nH]c2ccc(Br)cc12 | – | Active | inactive | – | – | –
9 | 40% | inactive | Active | – | inactive | – | – | Active | Active | – | Active | 20% | inactive | O=C(NCCCCSSCCCCNC(=O)/C(Cc1c[nH]c2ccc(Br)cc12)=N/O)/C(Cc1c[nH]c2ccc(Br)cc12)=N/O | Active | Active | inactive | – | – | –
10 | 60% | Active | Active | Active | – | – | – | – | – | – | – | 40% | – | O=C(NCCSSCCNC(=O)/C(Cc1c[nH]c2cc(Br)ccc12)=N/O)/C(Cc1c[nH]c2cc(Br)ccc12)=N/O | Active | Active | – | Active | Active | Activity (U-937 [16]): Active

— ChEMBL document CHEMBL2177007, “Indole-derived psammaplin A analogues as epigenetic modulators with multiple inhibitory activities” (J Med Chem, 2012)
